Several values for one entry are separate records, joined by “and”; a condition that tells them apart may be missing. Equal values may be shown once.
Assays:
[1] = The acute toxicity was determined in female CD1 mice after (ip) administration; format: functional; conditions: Mus musculus
[2] = The chronic toxicity was determined in female CD1 mice after (ip) administration; format: functional; conditions: Mus musculus
[3] = tested on: Canis familiaris; assay: putrescine Distribution in kidney was determined after DESPM dosing of 8.0 mg/kg/day for 4.5 days in dog and sacrificed at 10 days PLD(cu dose-36 mg/kg); format: ADME, organism-based, Canis lupus familiaris; conditions: in vivo, 240 h
[4] = tested on: Canis familiaris; assay: Spermidine Distribution in liver was determined after DESPM dosing of 1.87 mg/kg/day for 28 days in dog(cu dose-52.4) and sacrificed at 10 days PLD(cu dose-52.4 mg/kg); format: ADME, organism-based, Canis lupus familiaris; conditions: in vivo, 240 h
[5] = tested on: Canis familiaris; assay: Spermidine Distribution in liver was determined after DESPM dosing of 1.87 mg/kg/day for 28 days in dog(cu dose-52.4) and sacrificed at 75 days PLD(cu dose-52.4 mg/kg); format: ADME, organism-based, Canis lupus familiaris; conditions: in vivo, 1800 h
[6] = tested on: Canis familiaris; assay: putrescine Distribution in liver was determined after DESPM dosing of 4 mg/kg/day for 13 days in dog(cu dose-52.4) and sacrificed at 75 days PLD(cu dose-52 mg/kg); format: ADME, organism-based, Canis lupus familiaris; conditions: in vivo, 1800 h
[7] = tested on: Canis familiaris; assay: putrescine Distribution in liver was determined after DESPM dosing of 8.0 mg/kg/day for 4.5 days in dog(cu dose-52.4) and sacrificed at 10 days PLD(cu dose-36 mg/kg); format: ADME, organism-based, Canis lupus familiaris; conditions: in vivo, 240 h
[8] = tested on: Canis familiaris; assay: Spermidine Distribution in kidney was determined after DESPM dosing of 4 mg/kg/day for 13 days in dog(cu dose-52.4) and sacrificed at 10 days PLD(cu dose-52 mg/kg); format: ADME, organism-based, Canis lupus familiaris; conditions: in vivo, 240 h
[9] = tested on: Canis familiaris; assay: Spermidine Distribution in kidney was determined after DESPM dosing of 6.0 mg/kg/day for 4.5 days in dog(cu dose-52.4) and sacrificed at 10 days PLD(cu dose-27 mg/kg); format: ADME, organism-based, Canis lupus familiaris; conditions: in vivo, 240 h
[10] = tested on: Canis familiaris; assay: putrescine Distribution in kidney was determined after DESPM dosing of 4.0 mg/kg/day for 13 days in dog and sacrificed at 10 days PLD(cu dose-52 mg/kg); format: ADME, organism-based, Canis lupus familiaris; conditions: in vivo, 240 h
[11] = tested on: Canis familiaris; assay: putrescine Distribution in kidney was determined after DESPM dosing of 4.0 mg/kg/day for 13 days in dog and sacrificed at 75 days PLD(cu dose-52 mg/kg); format: ADME, organism-based, Canis lupus familiaris; conditions: in vivo, 1800 h
[12] = tested on: Canis familiaris; assay: Spermidine Distribution in liver was determined after DESPM dosing of 4 mg/kg/day for 13 days in dog(cu dose-52.4) and sacrificed at 75 days PLD(cu dose-52 mg/kg); format: ADME, organism-based, Canis lupus familiaris; conditions: in vivo, 1800 h
[13] = tested on: Canis familiaris; assay: Spermidine Distribution in liver was determined after DESPM dosing of 6.0 mg/kg/day for 4.5 days in dog(cu dose-52.4) and sacrificed at 75 days PLD(cu dose-27 mg/kg); format: ADME, organism-based, Canis lupus familiaris; conditions: in vivo, 1800 h
[14] = tested on: Canis familiaris; assay: Spermidine Distribution in liver was determined after DESPM dosing of 8.0 mg/kg/day for 4.5 days in dog(cu dose-52.4) and sacrificed at 75 days PLD(cu dose-36 mg/kg); format: ADME, organism-based, Canis lupus familiaris; conditions: in vivo, 1800 h
[15] = tested on: Canis familiaris; assay: Spermidine Distribution in kidney was determined after DESPM dosing of 6.0 mg/kg/day for 4.5 days in dog(cu dose-52.4) and sacrificed at 75 days PLD(cu dose-27 mg/kg); format: ADME, organism-based, Canis lupus familiaris; conditions: in vivo, 1800 h
[16] = tested on: Canis familiaris; assay: Spermidine Distribution in kidney was determined after DESPM dosing of 8.0 mg/kg/day for 4.5 days in dog(cu dose-52.4) and sacrificed at 75 days PLD(cu dose-36 mg/kg); format: ADME, organism-based, Canis lupus familiaris; conditions: in vivo, 1800 h
[17] = tested on: Canis familiaris; assay: MESPM/MEHSPH Distribution in kidney was determined after DESPM dosing of 1.87 mg/kg/day for 28 days in dog(cu dose-52.4) and sacrificed at 10 days PLD(cu dose-52.4 mg/kg); format: ADME, organism-based, Canis lupus familiaris; conditions: in vivo, 240 h
[18] = tested on: Canis familiaris; assay: MESPM/MEHSPH Distribution in kidney was determined after DESPM dosing of 4 mg/kg/day for 13 days in dog(cu dose-52.4) and sacrificed at 10 days PLD(cu dose-52 mg/kg); format: ADME, organism-based, Canis lupus familiaris; conditions: in vivo, 240 h
[19] = tested on: Canis familiaris; assay: MESPM/MEHSPH Distribution in kidney was determined after DESPM dosing of 6.0 mg/kg/day for 4.5 days in dog(cu dose-52.4) and sacrificed at 10 days PLD(cu dose-27 mg/kg); format: ADME, organism-based, Canis lupus familiaris; conditions: in vivo, 240 h
[20] = tested on: Canis familiaris; assay: MESPM/MEHSPH Distribution in kidney was determined after DESPM dosing of 8.0 mg/kg/day for 4.5 days in dog(cu dose-52.4) and sacrificed at 75 days PLD(cu dose-36 mg/kg); format: ADME, organism-based, Canis lupus familiaris; conditions: in vivo, 1800 h
[21] = tested on: Rattus norvegicus; assay: Weight loss of rat over the 6-h experimental period when a dose of 0 mg/kg (0 administered; format: functional
[22] = tested on: Rattus norvegicus; assay: Weight loss of rat over the 6-h experimental period when a dose of 4.7 mg/kg (11.6 administered; format: functional
[23] = tested on: Rattus norvegicus; assay: Percent reduction was determined by using the ratio of mean of treated animal to that of control animal at a dose of 23.5 mg/kg; format: functional
[24] = tested on: Rattus norvegicus; assay: Percent reduction was determined by using the ratio of mean of treated animal to that of control animal at a dose of 4.7 mg/kg; format: functional
[25] = tested on: Rattus norvegicus; assay: Percent reduction was determined by using the ratio of mean of treated animal to that of control animal at a dose of 9.4 mg/kg; format: functional
[26] = tested on: Rattus norvegicus; assay: Percent reduction was determined by using the ratio of mean of treated animal to that of control animal at a dose of 94 mg/kg; format: functional
[27] = tested on: Rattus norvegicus; assay: Stool output of rat over the 6-h collection period when a dose of 14.3 mg/kg (35.4 administered; format: functional
[28] = tested on: Canis familiaris; assay: putrescine Distribution in kidney was determined after DESPM dosing of 6.0 mg/kg/day for 4.5 days in dog and sacrificed at 10 days PLD(cu dose-27 mg/kg); format: ADME, organism-based, Canis lupus familiaris; conditions: in vivo, 240 h
[29] = tested on: Canis familiaris; assay: putrescine Distribution in liver was determined after DESPM dosing of 6.0 mg/kg/day for 4.5 days in dog(cu dose-52.4) and sacrificed at 75 days PLD(cu dose-27 mg/kg); format: ADME, organism-based, Canis lupus familiaris; conditions: in vivo, 1800 h
[30] = tested on: Canis familiaris; assay: putrescine Distribution in liver was determined after DEHSPM dosing of 2.0 mg/kg/day for 29 days in dog(cu dose-52.4) and sacrificed at 10 days PLD([…]); format: ADME, organism-based, Canis lupus familiaris; conditions: in vivo, 240 h
[31] = tested on: Canis familiaris; assay: Distribution in liver was determined after DEHSPM dosing of 2.0 mg/kg/day for 29 days in dog(cu dose-52.4) and sacrificed at 10 days PLD(cu dose-58 mg/kg); format: ADME, organism-based, Canis lupus familiaris; conditions: in vivo, 240 h
[32] = tested on: Canis familiaris; assay: HSPM Distribution in liver was determined after DEHSPM dosing of 2.0 mg/kg/day for 29 days in dog(cu dose-52.4) and sacrificed at 10 days PLD(cu dose-58 mg/kg); format: ADME, organism-based, Canis lupus familiaris; conditions: in vivo, 240 h
[33] = tested on: Canis familiaris; assay: MESPM/MEHSPH Distribution in liver was determined after DEHSPM dosing of 2.0 mg/kg/day for 29 days in dog(cu dose-52.4) and sacrificed at 10 days PLD(cu dose-22 mg/kg); format: ADME, organism-based, Canis lupus familiaris; conditions: in vivo, 240 h
[34] = tested on: Canis familiaris; assay: MESPM/MEHSPH Distribution in liver was determined after DEHSPM dosing of 2.0 mg/kg/day for 29 days in dog(cu dose-52.4) and sacrificed at 10 days PLD(cu dose-58 mg/kg); format: ADME, organism-based, Canis lupus familiaris; conditions: in vivo, 240 h
[35] = tested on: Canis familiaris; assay: Distribution in kidney was determined after DESPM dosing of 1.87 mg/kg/day for 28 days in dog(cu dose-52.4) and sacrificed at 10 days PLD(cu dose-52.4 mg/kg); format: ADME, organism-based, Canis lupus familiaris; conditions: in vivo, 240 h

Compound: CCNCCCNCCCCNCCCNCC [BIS(ETHYL)SPERMINE]
- LD50 [1]: 400 mg/kg
- LD50 [2]: 80 mg/kg
- Wet weight of tissue [3]: 20 nM/g
- Wet weight of tissue [4]: 179 nM/g
- Wet weight of tissue [5]: 198 nM/g
- Wet weight of tissue [6]: 62 nM/g
- Wet weight of tissue [7]: 109 nM/g
- Wet weight of tissue [8]: 82 nM/g
- Wet weight of tissue [9]: 60 nM/g
- Wet weight of tissue [10]: 12 nM/g
- Wet weight of tissue [11]: 7 nM/g
- Wet weight of tissue [12]: 264 nM/g
- Wet weight of tissue [13]: 244 nM/g
- Wet weight of tissue [14]: 221 nM/g
- Wet weight of tissue [15]: 90 nM/g
- Wet weight of tissue [16]: 80 nM/g
- Wet weight of tissue [17]: 12 nM/g
- Wet weight of tissue [18]: 7 nM/g
- Wet weight of tissue [19]: 10 nM/g
- Wet weight of tissue [20]: 0 nM/g
- Weight loss [21]: 11.9 g
- Weight loss [22]: <7.5 g
- Reduction [23]: 59% and 74%
- Reduction [24]: 37% and 60%
- Reduction [25]: 55% and 92%
- Reduction [26]: 81%
- Stool output [27]: <0.6 g (350g of rat weight)-1
- Wet weight of tissue [28]: 7 nM/g
- Wet weight of tissue [29]: 101 nM/g

Compound: CCNCCCCNCCCCNCCCCNCC [DIETHYLHOMOSPERMINE]
- LD50 [1]: 300 mg/kg
- LD50 [2]: 38 mg/kg
- Wet weight of tissue [30]: 34 nM/g
- Wet weight of tissue [31]: 80 nM/g
- Wet weight of tissue [32]: 751 nM/g
- Wet weight of tissue [33]: 13 nM/g
- Wet weight of tissue [34]: 72 nM/g
- Wet weight of tissue [35]: 50 nM/g
